The numbers were not newly measured in patent US20100234388A1, “SUBSTITUTED PDE5 INHIBITORS” (AUSPEX PHARMACEUTICALS, INC., priority 2006, published 2010), which cites them from elsewhere.

The structures appear in SMILES notation.

The conditions of data set [1]: human, in vivo.
The conditions of data set [2]: human, in vivo. This is another data set of the same source.
In data set [3] the test system is PDE5 versus PDE6. As to conditions: compared with sildenafil and vardenafil.

With `CN1CC(=O)N2[C@H](c3ccc4c(c3)OCO4)c3[nH]c4ccccc4c3C[C@@H]2C1=O` [tadalafil, Tadalafil], in data set [1], the exercise tolerance entry is listed as “improve exercise tolerance”. Further, in data set [2], the “patients with side effects of chromatopsia, increased sensitivity to light, and blurred vision” value is reported as “less than 0.1%”. Also, the “selectivity for PDE5 versus PDE6” value in data set [3] is “much more selective”.
